{"source": "patent US7432227B2", "about": "“6-alkyl or alkenyl-4-aminopicolinates and their use as herbicides” (Dow AgroSciences LLC, priority 2003, dated 2008)", "key": {"[1]": {"system": "Cocklebur (Xanthium strumarium)", "assay": "Postemergence herbicidal activity, Cocklebur", "assay_type": "in vivo", "conditions": "post-emergence, 336 h, rate 250 ppm, visual score after 2 weeks, 0 = no injury, 100 = complete kill, read-out: Post-emergent % control XANST", "method": "(§1) Seeds of the desired test plant species were planted in Grace-Sierra MetroMix® 306 planting mixture, which typically has a pH of 6.0 to 6.8 and an organic matter content of about 30 percent, in plastic pots with a surface area of 64 square centimeters. When required to ensure good germination and healthy plants, a fungicide treatment and/or other chemical or physical treatment was applied. The plants were grown for 7-21 days in a greenhouse with an approximate 15 hr photoperiod which was maintained at about 23-29° C. during the day and 22-28° C. during the night. Nutrients and water were added on a regular basis and supplemental lighting was provided with overhead metal halide 1000-Watt lamps as necessary. The plants were employed for testing when they reached the first or second true leaf stage. A weighed amount, determined by the highest rate to be tested, of each test compound was placed in a 20 mL glass vial and was dissolved in 4 mL of a 97:3 v/v (volume/volume) mixture of acetone and dimethyl sulfoxide (DMSO) to obtain concentrated stock solutions. […] The concentrated stock solutions obtained were diluted with an aqueous mixture containing acetone, water, isopropyl alcohol, DMSO, Atplus 411F crop oil concentrate, and Triton X-155 surfactant in a 48.5:39:10:1.5:1.0:0.02 v/v ratio to obtain spray solutions of known concentration. The solutions containing the highest concentration to be tested were prepared by diluting 2 mL aliquots of the stock solution with 13 mL of the mixture and lower concentrations were prepared by serial dilution of the stock solution. Approximately 1.5 mL aliquots of each solution of known concentration were sprayed evenly onto each of the test plant pots using a DeVilbiss atomizer driven by compressed air pressure of 2 to 4 psi (140 to 280 kilopascals) to obtain thorough coverage of each plant. Control plants were sprayed in the same manner with the aqueous mixture. In this test an application rate of 1 ppm results in the application of approximately 1 g/Ha. The treated plants and control plants were placed in a greenhouse as described above and watered by sub-irrigation to prevent wash-off of the test compounds. After 2 weeks the condition of the test plants as compared with that of the untreated plants was determined visually and scored on a scale of 0 to 100 percent where 0 corresponds to no injury and 100 corresponds to complete kill."}, "[2]": {"system": "Lambsquarter (Chenopodium album)", "assay": "Postemergence herbicidal activity, Lambsquarter", "assay_type": "in vivo", "conditions": "post-emergence, 336 h, visual score after 2 weeks, 0 = no injury, 100 = complete kill, read-out: Post-emergent % control CHEAL; for pest or weed control at 250 ppm: rate 250 ppm", "method": "as §1"}, "[3]": {"system": "Barnyardgrass (Echinochloa crus-galli)", "assay": "Postemergence herbicidal activity, Barnyardgrass", "assay_type": "in vivo", "conditions": "post-emergence, 336 h, visual score after 2 weeks, 0 = no injury, 100 = complete kill, read-out: Post-emergent % control ECHCG; for pest or weed control at 250 ppm: rate 250 ppm", "method": "as §1"}, "[4]": {"system": "Giant Foxtail (Setaria faberi)", "assay": "Postemergence herbicidal activity, Giant Foxtail", "assay_type": "in vivo", "conditions": "post-emergence, 336 h, visual score after 2 weeks, 0 = no injury, 100 = complete kill, read-out: Post-emergent % control SETFA; for pest or weed control at 250 ppm: rate 250 ppm", "method": "as §1"}, "[5]": {"system": "Pigweed (redroot) (Amaranthus retroflexus)", "assay": "Postemergence herbicidal activity, Pigweed (redroot)", "assay_type": "in vivo", "conditions": "visual score after 2 weeks, 0 = no injury, 100 = complete kill", "method": "as §1"}, "[6]": {"system": "Wheat(var.Merica) (Triticum aestivum)", "assay": "Postemergence herbicidal activity, selectivity to wheat", "assay_type": "in vivo", "conditions": "crop (wheat) selectivity, visual score after 2 weeks, 0 = no injury", "method": "as §1, with “Control plants were sprayed in the same manner with the aqueous mixture. In this test an application rate of 1 ppm results in the application of approximately 1 g/Ha. The treated plants and control plants were placed in a greenhouse as described above and watered by sub-irrigation to prevent wash-off of the test compounds.” left out"}, "[7]": {"system": "Corn (#14 3377) (Zea mays)", "assay": "Postemergence herbicidal activity, selectivity to corn", "assay_type": "in vivo", "conditions": "crop (corn) selectivity, visual score after 2 weeks, 0 = no injury", "method": "as §1"}, "[8]": {"system": "Lambsquarter (Chenopodium album)", "assay": "Preemergence herbicidal activity, Lambsquarter", "assay_type": "in vivo", "conditions": "pre-emergence, 504 h, visual score after 3 weeks, 100 = complete kill or no germination, read-out: Pre-emergent % control CHEAL; for pest or weed control at 280 ppm: rate 280 ppm", "excerpt": "(§2) Seeds of the desired test plant species were planted in a soil matrix prepared by mixing a loam soil (43 percent silt, 19 percent clay, and 38 percent sand, with a pH of about 8.1 and an organic matter content of about 1.5 percent) and sand in a 70 to 30 ratio. The soil matrix was contained in plastic pots with a surface area of 113 square centimeters. When required to ensure good germination and healthy plants, a fungicide treatment and/or other chemical or physical treatment was applied. A weighed amount, determined by the highest rate to be tested, of each test compound was placed in a 20 mL glass vial and was dissolved in 4 mL of a 97:3 v/v (volume/volume) mixture of acetone and dimethyl sulfoxide to obtain concentrated stock solutions. […] The stock solutions obtained were diluted with a 99.9:0.1 mixture of water and Tween® […] surfactant to obtain application solutions of known concentration. The solutions containing the highest concentration to be tested were prepared by diluting 2 mL aliquots of the stock solution with 15 mL of the mixture and lower concentrations were prepared by serial dilution of the stock solution. A 2.5 mL aliquot of each solution of known concentration was sprayed evenly onto the soil surface (113 sq. cm) of each seeded pot using a Cornwall 5.0 mL glass syringe fitted with a TeeJet TN-3 hollow cone nozzle to obtain thorough coverage of the soil in each pot. Control pots were sprayed in the same manner with the aqueous mixture. The treated pots and control pots were placed in a greenhouse maintained with an approximate 15 hr photoperiod and temperatures of about 23-29° C. during the day and 22-28° C. during the night. Nutrients and water were added on a regular basis and supplemental lighting was provided with overhead metal halide 1000-Watt lamps as necessary. The water was added by top-irrigation. After 3 weeks the condition of the test plants that germinated and grew as compared with that of the untreated plants that germinated and grew was determined visually and scored on a scale of 0 to 100 percent where 0 corresponds to no injury and 100 corresponds to complete kill or no germination."}, "[9]": {"system": "Ivyleaf Morningglory (Ipomoea hederacea)", "assay": "Preemergence herbicidal activity, Ivyleaf Morningglory", "assay_type": "in vivo", "conditions": "pre-emergence, 504 h, visual score after 3 weeks, 100 = complete kill or no germination, read-out: Pre-emergent % control IPOHE; for pest or weed control at 280 ppm: rate 280 ppm", "excerpt": "as §2"}, "[10]": {"system": "Crabgrass(large) (Digitaria sanguinalis)", "assay": "Preemergence herbicidal activity, Crabgrass(large)", "assay_type": "in vivo", "conditions": "pre-emergence, 504 h, visual score after 3 weeks, 100 = complete kill or no germination, read-out: Pre-emergent % control DIGSA; for pest or weed control at 280 ppm: rate 280 ppm", "excerpt": "as §2"}, "[11]": {"system": "Giant Foxtail (Setaria faberi)", "assay": "Preemergence herbicidal activity, Giant Foxtail", "assay_type": "in vivo", "conditions": "pre-emergence, 504 h, visual score after 3 weeks, 100 = complete kill or no germination, read-out: Pre-emergent % control SETFA; for pest or weed control at 280 ppm: rate 280 ppm", "excerpt": "as §2"}}, "data": [{"compound": "CCc1cc(N)c(Cl)c(C(=O)OC)n1", "note": "[Compound 4, Methyl 4-amino-3-chloro-6-ethylpyridine-2-carboxylate]", "values": [{"measurement": "pest or weed control at 250 ppm", "setting": "[1]", "value": 95, "unit": "%"}, {"measurement": "pest or weed control at 250 ppm", "setting": "[2]", "value": 100, "unit": "%"}, {"measurement": "pest or weed control at 250 ppm", "setting": "[3]", "value": 0, "unit": "%"}, {"measurement": "pest or weed control at 250 ppm", "setting": "[4]", "value": 0, "unit": "%"}, {"measurement": "Post-emergent % control AMARE", "setting": "[5]; rate 250 ppm", "value": 98, "unit": "%"}, {"measurement": "Post-emergent % control TRZAS", "setting": "[6]; rate 250 ppm", "value": 0, "unit": "%"}, {"measurement": "Post-emergent % control ZEAMX", "setting": "[7]; rate 250 ppm", "value": 0, "unit": "%"}, {"measurement": "pest or weed control at 280 ppm", "setting": "[8]", "value": 98, "unit": "%"}, {"measurement": "pest or weed control at 280 ppm", "setting": "[9]", "value": 100, "unit": "%"}, {"measurement": "pest or weed control at 280 ppm", "setting": "[10]", "value": 0, "unit": "%"}, {"measurement": "pest or weed control at 280 ppm", "setting": "[11]", "value": 0, "unit": "%"}]}, {"compound": "CCc1cc(N)c(Cl)c(C(=O)O)n1", "note": "[Compound 6, 4-Amino-3-chloro-6-ethylpyridine-2-carboxylic acid]", "values": [{"measurement": "pest or weed control at 250 ppm", "setting": "[1]", "value": 98, "unit": "%"}, {"measurement": "pest or weed control at 250 ppm", "setting": "[2]", "value": 90, "unit": "%"}, {"measurement": "pest or weed control at 250 ppm", "setting": "[3]", "value": 0, "unit": "%"}, {"measurement": "pest or weed control at 250 ppm", "setting": "[4]", "value": 0, "unit": "%"}, {"measurement": "Post-emergent % control AMARE", "setting": "[5]; rate 250 ppm", "value": 100, "unit": "%"}, {"measurement": "Post-emergent % control TRZAS", "setting": "[6]; rate 250 ppm", "value": 0, "unit": "%"}, {"measurement": "Post-emergent % control ZEAMX", "setting": "[7]; rate 250 ppm", "value": 0, "unit": "%"}, {"measurement": "pest or weed control at 280 ppm", "setting": "[8]", "value": 90, "unit": "%"}, {"measurement": "pest or weed control at 280 ppm", "setting": "[9]", "value": 100, "unit": "%"}, {"measurement": "pest or weed control at 280 ppm", "setting": "[10]", "value": 15, "unit": "%"}, {"measurement": "pest or weed control at 280 ppm", "setting": "[11]", "value": 0, "unit": "%"}, {"measurement": "melting point", "value": "140 to 142", "unit": "°C"}]}, {"compound": "COCc1cc(N)c(Cl)c(C(=O)O)n1", "note": "[Compound 9, 4-Amino-3-chloro-6-(methoxymethyl)pyridine-2-carboxylic acid]", "values": [{"measurement": "pest or weed control at 250 ppm", "setting": "[1]", "value": 80, "unit": "%"}, {"measurement": "pest or weed control at 250 ppm", "setting": "[2]", "value": 80, "unit": "%"}, {"measurement": "pest or weed control at 250 ppm", "setting": "[3]", "value": 0, "unit": "%"}, {"measurement": "pest or weed control at 250 ppm", "setting": "[4]", "value": 0, "unit": "%"}, {"measurement": "Post-emergent % control AMARE", "setting": "[5]; rate 250 ppm", "value": 90, "unit": "%"}, {"measurement": "Post-emergent % control ZEAMX", "setting": "[7]; rate 250 ppm", "value": 0, "unit": "%"}, {"measurement": "pest or weed control at 560 ppm", "setting": "[8]; rate 560 ppm", "value": 90, "unit": "%"}, {"measurement": "pest or weed control at 560 ppm", "setting": "[9]; rate 560 ppm", "value": 50, "unit": "%"}, {"measurement": "pest or weed control at 560 ppm", "setting": "[10]; rate 560 ppm", "value": 10, "unit": "%"}, {"measurement": "pest or weed control at 560 ppm", "setting": "[11]; rate 560 ppm", "value": 10, "unit": "%"}]}, {"compound": "COC(=O)c1nc(C)cc(N)c1Cl", "note": "[Compound 13, Methyl 4-amino-3-chloro-6-methylpyridine-2-carboxylate]", "values": [{"measurement": "pest or weed control at 254 ppm", "setting": "[2]; rate 254 ppm", "value": 70, "unit": "%"}, {"measurement": "pest or weed control at 254 ppm", "setting": "[3]; rate 254 ppm", "value": 0, "unit": "%"}, {"measurement": "pest or weed control at 254 ppm", "setting": "[4]; rate 254 ppm", "value": 0, "unit": "%"}, {"measurement": "Post-emergent % control AMARE", "setting": "[5]; rate 254 ppm", "value": 90, "unit": "%"}, {"measurement": "Post-emergent % control TRZAS", "setting": "[6]; rate 254 ppm", "value": 0, "unit": "%"}, {"measurement": "Post-emergent % control ZEAMX", "setting": "[7]; rate 254 ppm", "value": 0, "unit": "%"}, {"measurement": "pest or weed control at 573 ppm", "setting": "[8]; rate 573 ppm", "value": 100, "unit": "%"}, {"measurement": "pest or weed control at 573 ppm", "setting": "[9]; rate 573 ppm", "value": 90, "unit": "%"}, {"measurement": "pest or weed control at 573 ppm", "setting": "[10]; rate 573 ppm", "value": 0, "unit": "%"}, {"measurement": "pest or weed control at 573 ppm", "setting": "[11]; rate 573 ppm", "value": 0, "unit": "%"}]}]}
